Results on 1 compound are retold here after patent publication US10716828B2, “Methods of modulating cellular homeostatic pathways and cellular survival” (Dana-Farber Cancer Institute, Inc., priority 2007, dated 2020).

This series has as its system islets. Description: Toxicity to islets. The series is classed as cell-based, mouse. To be noted: 3 μM.

With `CSCC[C@@H]1NC(=O)[C@@](C)(NC(=O)[C@H](CCCNC(=N)N)NC(=O)[C@H](CC(C)C)NC(=O)[C@H](CCC(=O)O)NC(=O)[C@H](CCCNC(=N)N)NC(=O)CNC(=O)[C@H](Cc2ccc(O)cc2)NC(=O)[C@H](CCCNC(=N)N)NC(=O)[C@H](CCC(N)=O)NC(=O)[C@H](C)NC(=O)[C@H](C)NC(=O)[C@H](Cc2c[nH]c3ccccc23)NC(=O)[C@H](CC(C)C)NC(=O)[C@@H](N)CC(N)=O)CCCC=CCCC[C@@](C)(C(=O)N[C@@H](Cc2ccccc2)C(=O)N[C@H](C(=O)N[C@@H](CC(=O)O)C(=O)N[C@@H](CO)C(=O)N[C@@H](Cc2ccccc2)C(=O)N[C@@H](CCCCN)C(=O)N[C@@H](CCCCN)C(=O)O)C(C)C)NC(=O)[C@H](CC(=O)O)NC(=O)[C@H](CO)NC1=O` [BAD SAHBA], the toxicity to islets entry is on record as “not toxic to islets”.
